The record followed here is EP1037653B1, “COMPOSITIONS AND METHODS FOR REGULATING PHAGOCYTOSIS AND ICAM-1 EXPRESSION” (JOHNSON & JOHNSON CONSUMER COMPANIES, INC., priority 1997, dated 1999).

In test [1] the test system is human primary keratinocytes. Description: Fluorescent microsphere ingestion (phagocytosis), fluorescence microscopy. In kind it is cell-based. As to conditions: treated two days; Compound I 1µM, SLIGRL 10µM; vs vehicle control; Figure 1. The procedure:
(§1) In order to study the role of the PAR-2 pathway in phagocytosis, several in vitro model systems were used. One system used contained primary human keratinocytes or a human keratinocyte cell line. In this and a number of following examples, cells were treated with test compounds for different amounts of time (from one hour to three days), and samples were then incubated with fluorescent microspheres for two hours. The beads ingested by the cells were photographed using fluorescence microscopy.
(§2) In this example, human primary keratinocytes or the human keratinocyte cell line HaCaT were used as in vitro model systems to study the effect of PAR-2 regulators on keratinocyte phagocytosis. The human primary keratinocytes used are commercially available from Clonetics (San Diego, CA). Cells were plated on chamber slides, at 2 chambers/slide and 60,000 cells/chamber. […]

Test [2] relates to human keratinocyte cell line HaCaT. The test is described as above. As to conditions: Figure 2, repeated at least three times. In kind it is cell-based. The procedure:
as §1, §2

Test [3] concerns macrophage cell line IC-21. Description: Fluorescent microsphere ingestion (phagocytosis). In kind it is cell-based. As to conditions: IC-21 macrophages. The procedure:
(§3) In this example, human primary keratinocytes or the human keratinocyte cell line HaCaT were used as in vitro model systems to study the effect of PAR-2 regulators on keratinocyte phagocytosis. The human primary keratinocytes used are commercially available from Clonetics (San Diego, CA). Cells were plated on chamber slides, at 2 chambers/slide and 60,000 cells/chamber. Cells were treated once daily, for two or three days, with Compound I (1µM), SLIGRL (10µM), or vehicle (Phosphate-buffered saline, ("PBS") from Gibco-BRL (Gaithersburg, MD). After two or three days of exposure to the test compounds, cells were exposed to Nile-red or FITC fluorescent microspheres, 1 µm in diameter, 50 microspheres/cell, for two hours at 37°C. Microspheres were from Molecular Probes (Eugene, OR), and were processed according to manufacturer's instructions. Following that treatment, cells were incubated with 15% Fetal Bovine Serum ("FBS", from Gibco-BRL), for 15 minutes at 37°C and rinsed with PBS. At that time, chambers were separated from the slides, and the slides were covered with glycerol and coverslips. Fluorescent microscopy was performed using a Zeiss Axiovert 35 or a Nikon Optiphot-2 microscope.
The experiment described in Example 1 was repeated using the macrophage cell line IC-21 (obtained from the ATCC), which shares phagocytic characteristics with peritoneal macrophages. […]

The test system of test [4] is macrophage cell line IC-21. The experiment in a line: Vybrant Phagocytosis Assay Kit, ingestion of fluorescein-labeled E. Coli K-12 particles. Format: cell-based. The note with it: treated overnight; 100nM Compound I, 5µM SLIGRL, 0.1 mg/ml STI; untreated control = 100; one of three experiments. The procedure:
To better quantify the level of phagocytosis, the "vybrant™ Phagocytosis Assay Kit" of Molecular Probes (Eugene, Oregon) was used, following manufacturer's instructions, with modification of cell culture conditions for the IC-21 cell line. This kit uses Fluorescein-labeled E. Coli K-12 particles, and is designed for quantifying the effects of drugs or other environmental factors on phagocytic functions. Macrophages were treated overnight with 100nM of Compound I, 5µM of SLIGRL, or 0.1 mg/ml of STI, all dissolved in PBS. The ability of the treated macrophages to ingest the fluorescent E. Coli, as measured by this kit, is documented in Table 1. This experiment was repeated three times.
In order to verify the quantitative nature of the macrophage-phagocytosis assay, a dose-response experiment was performed. Macrophages were treated with 0, 0.01, 0.1 and 1 mg/ml of STI, and the experiment was performed as described in Example 3. […] Each experiment was repeated three times.

Test [5] has as its system Human keratinocytes. Description: Keratinocyte microsphere phagocytosis dose-response, image analysis of fluorescent beads. In kind it is cell-based. The note with it: two days; SLIGRL 0, 5 and 10 µM; Compound I 1pM to 1µM; STI 0.01 to 1 mg/ml. The procedure:
as §3, with “microscope. […]” for “microscope.”
Image analysis of the fluorescent beads inside the keratinocytes was used as an alternative way to quantify the phagocytic effect in this system. […]

Test [6] has as its system Human keratinocytes. Description: Timing of effect on keratinocyte microsphere phagocytosis. Further details: key: +: Plus signs indicate an effect on phagocytosis; -: minus signs indicate no effect on phagocytosis; -/+: plus/minus signs indicate a marginal effect on phagocytosis. The note with it: decrease for Compound I, increase for SLIGRL. In kind it is cell-based. The procedure:
as §3
Human keratinocytes were treated with Compound I or SLIGRL for periods of time ranging from one hour to two days. At the end of the treatment period, the cells were treated with microspheres as described in Example 1. […] Plus signs indicate an effect on phagocytosis, minus signs indicate no effect on phagocytosis, and plus/minus signs indicate a marginal effect on phagocytosis. The effects measured were a decrease for Compound I and an increase for SLIGRL. […] This implies that the PAR-2 signaling results in new protein synthesis, a reduction in protein synthesis when a turnover time is required to eliminate the existing relevant protein(s), or a rearrangement of proteins (as occurs in the reorganization of cytoskeletal components).

Test [7] relates to Keratinocytes. Description: Melanin uptake by keratinocytes, Fontana-Mason staining. In kind it is cell-based. As to conditions: treated two days; melanin powder two hours; Figure 5A; same results with isolated melanosomes (Figure 5B). The procedure: This example tests the ability of keratinocytes to acquire melanin or melanosomes in vitro, and thus function as a simplified system for melanosome uptake in the skin. Keratinocytes were plated in glass chamber-slides as described earlier, and were treated for two days with SLIGRL, Compound I or STI. At that time, melanin powder (from Sigma, St. Louis, MO) was mixed in sterile PBS at 10 µg/ml, and was added to the culture media (1:10 dilution) for two hours. Cells were then washed with PBS and stained with Fontana-Mason ("F&M") staining. F&M stains silver nitrate-reducing molecules, thereby permitting the identification of melanins inside the keratinocytes. […] This system, therefore, can mimic melanosome transfer and melanin distribution in vivo, as skin keratinocytes use melanin as an UV-protective cap over their nuclei. […] The same results were also observed using melanosomes isolated as described in S. Orlow, et al., J.I.D. 100:55-64 (1993) (Figure 5B).

For test [8], the system named is Primary melanocyte cultures plated under epidermal equivalents (EpiDerm). Description: Melanosome transfer (pigmentation) in equivalent-monolayer co-culture without keratinocyte-melanocyte contact. The note with it: no keratinocyte/melanocyte contact. In kind it is cell-based. The procedure: (§4) Since PAR-2 is expressed in keratinocytes, but not in melanocytes, the possible requirement of keratinocyte-melanocyte contact was tested for the effect of Compound I and SLIGRL on melanosome phagocytosis by the keratinocytes. Primary melanocyte cultures (commercially available from Clonetics, San Diego) were plated under epidermal equivalents (EpiDerm, of MatTek, Ashland, MA) to create an equivalent-monolayer co-culture with no contact between keratinocytes and melanocytes. These co-cultures were compared to MelanoDerm equivalents (of MatTek), where melanocytes are present in the basal layer of the equivalent. Cultures were treated with Compound I, with the […] agonist SLIGRL. As set forth in Table 3, keratinocytes are indicated by "K", melanocytes are indicated by "M", and lack of keratinocyte-melanocyte contact is indicated as "no K-M cont". […] The same result was also observed with monolayer keratinocyte/melanocyte co-cultures having keratinocyte/melanocyte contact.

For test [9], the system named is MelanoDerm equivalents. The experiment in a line: Melanosome transfer (pigmentation) in melanocyte-containing equivalents. Format: cell-based. The note with it: same result in monolayer co-cultures with keratinocyte/melanocyte contact. The procedure: as §4
For test [10], the system named is ICAM-1. The experiment in a line: ICAM-1 immunofluorescent staining of keratinocytes. Format: cell-based, human. As to conditions: vs untreated keratinocytes; Figure 6A. The procedure: Intercellular adhesion molecule-1 (ICAM-1) is an inducible cell-surface glycoprotein that is implicated in cell-cell adhesion, cell membrane raffling and phagocytosis. Therefore, the effect of PAR-2 modulation on ICAM-1 was tested. Keratinocytes were grown in chamber slides and treated with SLIGRL, Compound I and STI as described, followed by immunofluorescent staining for ICAM-1 using standard procedures. Normal donkey serum, (used at 1:5 dilution), was obtained from Jackson Immunoresearch Laboratory (Westgrove, PA). A polyclonal goat antihuman ICAM-1 antibody, (used at 1:200 dilution), was obtained from R&D Systems (Minneapolis, MN), and FITC-conjugated donkey anti-goat antibody was obtained from Jackson Immunoresearch Laboratory. […] In untreated keratinocytes, ICAM-1 was localized mainly to the plasma membrane, with some staining at the nuclear membrane.

For test [11], the system named is ICAM-1. Description: ICAM-1 immuno-precipitation and Western blotting in keratinocytes. As to conditions: treated keratinocytes; Figure 6B. Format: cell-based. The procedure:
Immuno-precipitation and Western blotting experiments were performed, according to known methods, to assess the level of ICAM-1 protein in treated keratinocytes.
Background: A western blot detects proteins with antibodies after separation by electrophoresis.

The subject of test [12] is Human PMN cells. Description: Boyden chamber chemotactic cell migration towards FMLP. Format: cell-based. The note with it: with FMLP; cells counted at 115 microns; pretreated with 5 or 0.5 mg/ml STI, 1 or 0.1 µM Compound I; FMLP alone 41. The procedure: Since ICAM-1 is involved in cell migration, cell migration towards a chemotactic peptide was studied in cells treated with Compound I and STI. Human PMN cells were placed in one side of a Boyden chamber, using standard techniques, and a chemotactic peptide (FMLP) was placed in the other chamber. Cells were allowed to migrate into the second chamber, and the number of migrating cells per field and distance of migration were calculated. The experiment was repeated with PMN cells pretreated with one of the following: 5 or 0.5 mg/ml STI, 1 or 0.1 µM Compound I, a buffer vehicle, and with and without chemotactic peptide. The number of cells per field that migrated the same distance as the untreated control was measured. Without the peptide and with no treatment, an average of 19 cells/field were migrating a distance of 80 microns. […] In other words, no cells (or less than 5/field) were identified at 115 microns. […] The ability to inhibit PMN migration is an important constituent of anti-inflammatory compounds.

The test system of test [13] is Keratinocytes. Description: Scanning electron microscopy of cell podia. Format: cell-based. As to conditions: treated two days; vs vehicle-treated controls; Figure 8. The procedure:
Both phagocytosis and cell migration involve changes in cell shape. Therefore, the effect of the PAR-2 pathway reagents on cell podia were studied using scanning electron microscopy. Keratinocytes were treated with Compound I (identified as "SH00230"), SLIGRL and a buffer vehicle for two days, and then processed for SEM using standard techniques. […] In other words, the cells' "fingers" are shorter and malformed, so they cannot grasp objects as well as can the control cells. […] In other words, these cells have a greater probability for productive interaction with particles. Comparing these SEM pictures in Figure 8, it is clear that SLIGRL-treated cells have a greater ability to interact with particles, while Compound 1-treated cells are less suited for such a task.

Test [14] concerns Keratinocytes. Description: F-actin staining, cytoskeletal organization. As to conditions: Compound I 10 nM, STI 0.1 mg/ml, SLIGRL 5 µM; Figure 9. Format: cell-based. The procedure: Therefore, the organization of F-actin filaments following PAR-2 modulation was tested. Keratinocytes were treated with Compound I (10 nM), STI (0.1 mg/ml), or with SLIGRL (5 µM) as described in Example 1, and stained for F-actin using standard techniques.

With “(S)-N-Methyl-D-phenylalanyl-N-[4-[(aminoiminomethyl)amino]-1-(2-benzothiazolylcarbonyl)butyl]-L-prolinamide [Compound I]”, the “quantity of ingested microspheres” value in test [1] was “dramatic reduction in the quantity of ingested microspheres”. Further, the microsphere ingestion result in test [2] is given as “reduce microsphere ingestion”. For the same substance, the “number of microspheres ingested” value in [3] is recorded as “reduced”. Also, the “% effect (ingestion)” value in test [4] is recorded as 89.9 +/- 13.6%. Moreover, the “phagocytosis with increasing concentrations” value in test [5] is reported as “dose-dependent decrease in phagocytosis”. The effect on phagocytosis result is given as “-” in test [6] (Time of Treatment 1 hour); “-” in test [6] (Time of Treatment 2 hours); “-” in [6] (Time of Treatment 4 hours); “-” in test [6] (Time of Treatment 6 hours); “-/+” in test [6] (Time of Treatment 8 hours); “+” in test [6] (Time of Treatment 16 hours). Besides, the effect on phagocytosis entry in test [6] (Time of Treatment 24 hours) and in [6] (Time of Treatment 48 hours) was “+” each time. The “uptake of melanin by keratinocytes” value in [7] is given as “dramatically reduce the uptake of melanin”. Further, in [8], the “effect on melanosome transfer, measured as the level of pigmentation” value is “no effect on melanosome transfer”. In addition, in test [9], the “pigmentation by affecting melanosome transfer” value was “reduced”. Further, the “intracellular localization of ICAM-1” value in test [10] was “less staining was observed at the cytoplasmic membrane, and more at the nuclear membrane”. Further, in test [11], the “level of ICAM-1 protein” value is given as “decreased the level of ICAM-1 expression”. Moreover, the Cells/Field in [12] is given as less than 5. For the same substance, the “shape of cell podia” value in test [13] is “dramatically shorter podia”. For the same substance, in test [14], the actin filaments organization result is “reduced the ordered organization of the cell cortex”.
